Measured values published in the supplement of paper PMC11061612.

Assays:
[1] = system: FU-OV-1 (Ovarian Carcinoma); experiment: Bliss excess, mean over the matrix (fraction); higher = more synergy
Procedure, shortened: (§1)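 Cell lines in DMEM/F12 or RPMI with 10% FBS were plated in 1536-well plates, held 24 hours at 37°C, 5% CO2, then given two-drug dose matrices for 72 hours (DMSO typically 0.2%). Viability was read by CellTiter-Glo 2.0 luminescence and scaled as inhibition from 0 (vehicle wells) to 1 (blank wells). Combination Emax is the second-highest inhibition in the matrix; Bliss excess is observed combination effect minus expected EA + EB − EA·EB, EA and EB being single-agent effects.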

[2] = system: H4 (Low Grade Glioma); experiment: as above
Procedure, shortened: as §1

[3] = system: HLE (Hepatocellular Carcinoma); experiment: as above
Procedure, shortened: as §1

[4] = system: SNG-M (Endometrial Carcinoma); experiment: as above
Procedure, shortened: as §1

[5] = system: TC-YIK (Other Solid Carcinomas); experiment: as above
Procedure, shortened: as §1

[6] = system: WSU-DLCL2 (B-Cell Non-Hodgkin's Lymphoma); experiment: as above
Procedure, shortened: as §1

[7] = system: CAL-39 (Other Solid Carcinomas); experiment: combination Emax (second highest fraction inhibited in the dose matrix, 72 h); higher = more inhibition; extreme values may be limits of the assay
Procedure, shortened: as §1

[8] = system: D-283MED (Other Solid Carcinomas); experiment: as above
Procedure, shortened: as §1

[9] = system: DOK (Oral Cavity Carcinoma); experiment: as above
Procedure, shortened: as §1

[10] = system: EW-22 (Ewing's Sarcoma); experiment: as above
Procedure, shortened: as §1

[11] = system: HCC38 (Breast Carcinoma); experiment: as above
Procedure, shortened: as §1

[12] = system: HCT-116 (Colorectal Carcinoma); experiment: as above
Procedure, shortened: as §1

[13] = system: MEG-01 (Chronic Myelogenous Leukemia); experiment: as above
Procedure, shortened: as §1

[14] = system: NOMO-1 (Acute Myeloid Leukemia); experiment: as above
Procedure, shortened: as §1

[15] = system: P31-FUJ (Acute Myeloid Leukemia); experiment: as above
Procedure, shortened: as §1

[16] = system: SW48 (Colorectal Carcinoma); experiment: as above
Procedure, shortened: as §1

[17] = system: SW948 (Colorectal Carcinoma); experiment: as above
Procedure, shortened: as §1

[18] = system: Saos-2 (Osteosarcoma); experiment: as above
Procedure, shortened: as §1

[19] = system: TC-YIK (Other Solid Carcinomas); experiment: as above
Procedure, shortened: as §1

[20] = system: WSU-DLCL2 (B-Cell Non-Hodgkin's Lymphoma); experiment: as above
Procedure, shortened: as §1
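Throughout, for Bliss excess, mean over the matrix: after 72 h of two-drug dosing.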

| Structure (SMILES) | Bliss excess [1] | Bliss excess [2] | Bliss excess [3] | Bliss excess [4] | Bliss excess [5] | Bliss excess [6] | combination Emax [7] | combination Emax [8] | combination Emax [9] | combination Emax [10] | combination Emax [11] | combination Emax [12] | combination Emax [13] | combination Emax [14] | combination Emax [15] | combination Emax [16] | combination Emax [17] | combination Emax [18] | combination Emax [19] | combination Emax [20] |
| --- | --- | --- | --- | --- | --- | --- | --- | --- | --- | --- | --- | --- | --- | --- | --- | --- | --- | --- | --- | --- |
| O=C(c1cc(Cc2n[nH]c(=O)c3ccccc23)ccc1F)N1CCN(C(=O)C2CC2)CC1 [Olaparib] + CN(CC[C@H](CSC1=CC=CC=C1)NC2=C(C=C(C=C2)S(=O)(=O)NC(=O)C3=CC=C(C=C3)N4CCC(CC4)[C@H](C5=CC=CC=C5C6=CC=C(C=C6)Cl)O)S(=O)(=O)C(F)(F)F)CCO [AZD4320] (first compound max 10 µM, 7x7, partner max 1 µM) | -0.0355 | 0.0106 | -0.0213 | -0.014 | 0.0047 | 0.0579 | 0.116 | 0.914 | 0.191 | 0.988 | 0.482 | 0.509 | 0.505 | 0.348 | 0.568 | 0.687 | 0.303 | 0.326 | 0.984 | 0.876 |
| C[C@@H](Nc1cc(F)cc(F)c1)c1cc(C(=O)N(C)C)cc2c(=O)cc(N3CCOCC3)oc12 [AZD8186] + C1CN(CCC1(C(=O)N[C@@H](CCO)C2=CC=C(C=C2)Cl)N)C3=NC=NC4=C3C=CN4 [AZD5363] (first compound max 10 µM, 7x7, partner max 10 µM) | -0.117 | -0.0049 | 0.0045 | -0.0046 | -0.0292 | -0.0155 | 0.667 | 0.485 | 0.655 | 0.45 | 0.262 | 0.47 | 0.226 | 0.45 | 0.521 | 0.557 | 0.656 | 0.425 | 0.294 | 1 |
| O=C(c1cc(Cc2n[nH]c(=O)c3ccccc23)ccc1F)N1CCN(C(=O)C2CC2)CC1 [Olaparib] + CC1(C)CCC(CN2CCN(c3ccc(C(=O)NS(=O)(=O)c4ccc(NCC5CCOCC5)c([N+](=O)[O-])c4)c(Oc4cnc5[nH]ccc5c4)c3)CC2)=C(c2ccc(Cl)cc2)C1 [Venetoclax] (first compound max 10 µM, 7x7, partner max 1 µM) | -0.0467 | -0.011 | -0.0308 | -0.0347 | -0.0304 | 0.0235 | 0.0578 | 0.666 | 0.108 | 0.921 | 0.179 | 0.384 | 0.109 | 0.383 | 0.166 | 0.175 | 0.122 | 0.249 | 0.403 | 0.452 |
| CN(CCO)CC[C@H](CSc1ccccc1)Nc1ccc(S(=O)(=O)NC(=O)c2ccc(N3CCC([C@@H](O)c4ccccc4-c4ccc(Cl)cc4)CC3)cc2)cc1S(=O)(=O)C(F)(F)F [AZD4320] + CS(=O)(=O)CCNCc1ccc(-c2ccc3ncnc(Nc4ccc(OCc5cccc(F)c5)c(Cl)c4)c3c2)o1 [Lapatinib] (first compound max 1 µM, 7x7, partner max 10 µM) | -0.0203 | -0.0113 | 0.0535 | -0.0091 | 0.0065 | 0.203 | 0.97 | 0.988 | 0.982 | 0.971 | 0.913 | 0.796 | 0.986 | 0.709 | 0.959 | 0.969 | 0.96 | 0.746 | 1 | 0.967 |
| N#Cc1cnc(Nc2cc(NC[C@H]3CNCCO3)c(C(F)(F)F)cn2)cn1 [SRA737] + Nc1ccn([C@@H]2O[C@H](CO)[C@@H](O)C2(F)F)c(=O)n1 [Gemcitabine] (first compound max 10 µM, 7x7, partner max 0.3 µM) | -0.0233 | 0.0511 | 0.029 | -0.0731 | -0.0605 | 0.111 | 0.932 | 1 | 0.704 | 0.93 | 0.731 | 0.873 | 0.883 | 1 | 1 | 0.841 | 0.828 | 0.817 | 0.872 | 1 |
| C[C@@H](Oc1cc(-c2cnn(C3CCNCC3)c2)cnc1N)c1c(Cl)ccc(F)c1Cl [Crizotinib] + Cn1cnc2c(F)c(Nc3ccc(Br)cc3Cl)c(C(=O)NOCCO)cc21 [Selumetinib] (first compound max 10 µM, 7x7, partner max 10 µM) | 0.0748 | 0.0034 | 0.0014 | -0.0333 | -0.0663 | -0.0458 | 0.866 | 0.973 | 0.933 | 0.78 | 0.0593 | 0.964 | 1 | 0.889 | 0.755 | 0.95 | 0.899 | 0.883 | 0.858 | 0.596 |
| C=CCn1c(=O)c2cnc(Nc3ccc(N4CCN(C)CC4)cc3)nc2n1-c1cccc(C(C)(C)O)n1 [AZD1775] + CCc1c2c(nc3ccc(O)cc13)-c1cc3c(c(=O)n1C2)COC(=O)[C@]3(O)CC [SN-38] (first compound max 1 µM, partner max 0.3 µM) | -0.102 | 0.015 | -0.0436 | -0.0087 | -0.0451 | 0.003 | 0.947 | 0.996 | 0.745 | 0.94 | 0.751 | 0.866 | 0.964 | 0.992 | 0.985 | 0.857 | 0.862 | 0.964 | 1 | 1 |
| N#Cc1cnc(Nc2cc(NC[C@H]3CNCCO3)c(C(F)(F)F)cn2)cn1 [SRA737] + CCc1c2c(nc3ccc(O)cc13)-c1cc3c(c(=O)n1C2)COC(=O)[C@]3(O)CC [SN-38] (first compound max 10 µM, 7x7, partner max 0.3 µM) | -0.0076 | -0.0029 | -0.0755 | -0.111 | -0.0041 | 0.0055 | 0.93 | 0.994 | 0.582 | 0.932 | 0.682 | 0.818 | 0.946 | 0.997 | 0.984 | 0.854 | 0.834 | 0.948 | 1 | 1 |
| CC1(C)CCC(CN2CCN(c3ccc(C(=O)NS(=O)(=O)c4ccc(NCC5CCOCC5)c([N+](=O)[O-])c4)c(Oc4cnc5[nH]ccc5c4)c3)CC2)=C(c2ccc(Cl)cc2)C1 [Venetoclax] + CS(=O)(=O)CCNCc1ccc(-c2ccc3ncnc(Nc4ccc(OCc5cccc(F)c5)c(Cl)c4)c3c2)o1 [Lapatinib] (first compound max 1 µM, 7x7, partner max 10 µM) | -0.0697 | -0.0188 | -0.0347 | -0.0166 | -0.0035 | 0.0902 | 0.913 | 0.927 | 0.645 | 0.214 | 0.169 | 0.391 | 0.485 | 0.319 | 0.581 | 0.391 | 0.352 | 0.214 | 0.294 | 0.798 |
| C[C@@H]1COCCN1c1cc(C2([S@](C)(=N)=O)CC2)nc(-c2ccnc3[nH]ccc23)n1 [AZD6738] + C1CC(C1)(C(=O)[O-])C(=O)[O-].N.N.[Pt+2] [Carboplatin] (first compound max 10 µM, 7x7, partner max 10 µM) | -0.0576 | 0.0025 | 0.0173 | -0.0448 | -0.0631 | 0.0217 | 0.609 | 0.996 | 0.459 | 0.851 | 0.52 | 0.664 | 0.923 | 0.946 | 0.922 | 0.673 | 0.566 | 0.544 | 0.802 | 0.767 |
| Cc1c2c(nn1C)CSCc1cc(n(C)n1)CSc1cc(c3ccccc3c1)OCCCc1c(C(=O)O)n(C)c3c-2c(Cl)ccc13 [AZD5991] + CC(=O)O[C@H]1C(=O)[C@@]2(C)[C@H]([C@H](OC(=O)c3ccccc3)[C@]3(O)C[C@H](OC(=O)[C@H](O)[C@@H](NC(=O)c4ccccc4)c4ccccc4)C(C)=C1C3(C)C)[C@]1(OC(C)=O)CO[C@@H]1C[C@@H]2O [Paclitaxel] (first compound max 1 µM, 7x7, partner max 3 µM) | 0.0262 | 0.0003 | -0.0411 | 0.0374 | -0.0709 | -0.0151 | 0.994 | 1 | 0.977 | 0.871 | 0.571 | 0.981 | 0.881 | 1 | 1 | 0.994 | 0.884 | 0.961 | 0.928 | 1 |
